Assay results from US20230027985A1, “SUBSTITUTED HYDANTOINAMIDES AS ADAMTS7 ANTAGONISTS” (Bayer Aktiengesellschaft, priority 2019, published 2023).

Tests used:
[1] = target: T1, Purified recombinant ADAMTS-7 (rat prodomain/human catalytic domain, SEQ ID No. 01 or 02) (Homo sapiens, UniProt Q9UKP4); assay: Assay for ADAMTS-7 enzymatic activity (FRET substrate cleavage); assay type: biochemical; settings: FRET substrate SEQ ID No. 11, 120 min at 32° C.; read-out: ADAMTS7-IC50
T1 construct: rat ADAMTS-7 signal peptide + prodomain (rat 1-217, Q1EHB3) (N); 2xStrep tag (C); 6xHis tag (C); made in house; host or cells: Expi293 cells
T1 sequence (Q9UKP4 237-537): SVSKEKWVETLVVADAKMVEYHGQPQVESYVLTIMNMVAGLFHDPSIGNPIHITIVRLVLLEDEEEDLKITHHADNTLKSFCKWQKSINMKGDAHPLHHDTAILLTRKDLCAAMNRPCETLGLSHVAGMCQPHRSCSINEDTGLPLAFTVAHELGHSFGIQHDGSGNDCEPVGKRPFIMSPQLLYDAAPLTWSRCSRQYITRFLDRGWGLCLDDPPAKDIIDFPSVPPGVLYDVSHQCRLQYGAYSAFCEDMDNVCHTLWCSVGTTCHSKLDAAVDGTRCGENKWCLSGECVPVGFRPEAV
Procedure, shortened: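 IC50 values were fitted from percent inhibition across test-compound concentrations. Fluorescence gain (ex 485, em 520 nm) reports cleavage of a thrombospondin-1 (275-289) FRET peptide with QXL520 quencher, after 120 min at 32 °C. The enzyme, about 20 nM, was in HEPES pH 8.0 buffer with NaCl, CaCl2, ZnCl2 and Brij.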

[2] = target: T2, ADAMTS4 (Homo sapiens, UniProt O75173); assay: Selectivity assay for ADAMTS-7 modulators (FRET), ADAMTS4; assay type: biochemical; settings: 50 nM enzyme (R&D 4307-AD), 1 μM Dabcyl/Edans FRET substrate, 120 min at 32° C.
T2 construct: purchased R&D 4307-AD
T2 sequence (O75173 213-685 limits assumed): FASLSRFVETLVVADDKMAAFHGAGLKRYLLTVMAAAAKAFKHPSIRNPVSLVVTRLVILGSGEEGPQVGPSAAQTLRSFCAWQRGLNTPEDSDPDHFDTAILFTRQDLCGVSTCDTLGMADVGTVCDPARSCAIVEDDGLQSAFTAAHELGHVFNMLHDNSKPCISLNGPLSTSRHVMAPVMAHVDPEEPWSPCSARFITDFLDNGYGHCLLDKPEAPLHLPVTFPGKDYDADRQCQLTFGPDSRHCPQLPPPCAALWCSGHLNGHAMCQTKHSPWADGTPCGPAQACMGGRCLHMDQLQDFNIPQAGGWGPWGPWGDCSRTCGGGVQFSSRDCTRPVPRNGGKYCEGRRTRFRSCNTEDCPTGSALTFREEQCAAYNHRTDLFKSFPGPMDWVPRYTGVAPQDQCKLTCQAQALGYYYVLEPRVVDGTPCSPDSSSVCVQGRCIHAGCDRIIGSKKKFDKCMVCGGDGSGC
Procedure, shortened: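 Enzyme in 50 mM Tris pH 7.5, 150 mM NaCl, 10 mM CaCl2, 0.05% Brij, preincubated with compound in DMSO; reaction started with FRET substrate. Fluorescence increase read after 120 min at 32° C; IC50 from percent inhibition versus compound concentration.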

Structure (SMILES) | IC50 [1] | IC50 [2]
O=C1NC(=O)C(CNC(=O)c2cnn(-c3ccc(F)cc3F)n2)(c2nccs2)N1 (single isomer, unassigned; ent-2) [Example 116, ent-2-(2,4-difluorophenyl)-N-{[2,5-dioxo-4-(1,3-thiazol-2-yl)imidazolidin-4-yl]methyl}-2H-1,2,3-triazole-4-carboxamide] | 78 nM | 5500 nM
CC(C)C1(CNC(=O)c2cnn(-c3cccc(F)c3)n2)NC(=O)NC1=O (single isomer, unassigned; ent-2) [Example 119, ent-2-(3-fluorophenyl)-N-[(4-isopropyl-2,5-dioxoimidazolidin-4-yl)methyl]-2H-1,2,3-triazole-4-carboxamide] | 13 nM | 2300 nM
CC(C)C1(CNC(=O)c2cnn(-c3cccc(C#N)c3)n2)NC(=O)NC1=O (single isomer, unassigned; ent-2) [Example 121, ent-2-(3-cyanophenyl)-N-[(4-isopropyl-2,5-dioxoimidazolidin-4-yl)methyl]-2H-1,2,3-triazole-4-carboxamide] | 78 nM | 2600 nM
CC(C)C1(CNC(=O)c2cnn(-c3ccc(Cl)c(F)c3)n2)NC(=O)NC1=O (single isomer, unassigned; ent-2) [Example 125, ent-2-(4-chloro-3-fluorophenyl)-N-[(4-isopropyl-2,5-dioxoimidazolidin-4-yl)methyl]-2H-1,2,3-triazole-4-carboxamide] | 7 nM | 1000 nM
Cn1ccnc1C1(CNC(=O)c2cnn(-c3ccc(F)c(F)c3)n2)NC(=O)NC1=O (single isomer, unassigned; ent-2) [Example 147, ent-2-(3,4-difluorophenyl)-N-{[4-(1-methyl-1H-imidazol-2-yl)-2,5-dioxoimidazolidin-4-yl]methyl}2H-1,2,3-triazole-4-carboxamide] | 3 nM | 46 nM
O=C1NC(=O)[C@](CNC(=O)c2cnn(-c3cccc(F)c3)n2)(C2CC2)N1 [Example 1, N-{[(4R)-4-cyclopropyl-2,5-dioxoimidazolidin-4-yl]methyl}-2-(3-fluorophenyl)-2H-1,2,3-triazole-4-carboxamide] | 13 nM | 580 nM
CC(C)(C)C1(CNC(=O)c2cnn(-c3ccc(F)cc3)n2)NC(=O)NC1=O (stereo not drawn) [Example 3, ent-N-{[4-tert-butyl-2,5-dioxoimidazolidin-4-yl]methyl}-2-(4-fluorophenyl)-2H-1,2,3-triazole-4-carboxamide] | 79 nM | 2200 nM
O=C1NC(=O)[C@](CNC(=O)c2cnn(-c3ccc(C(F)(F)F)c(F)c3)n2)(C2CC2)N1 [Example 5, N-{[(4R)-4-cyclopropyl-2,5-dioxoimidazolidin-4-yl]methyl}-2-[3-fluoro-4-(trifluoromethyl)phenyl]-2H-1,2,3-triazole-4-carboxamide] | 120 nM | 4600 nM
O=C1NC(=O)[C@](CNC(=O)c2cnn(-c3ccc(F)c(F)c3)n2)(C2CC2)N1 [Example 8, N-{[(4R)-4-cyclopropyl-2,5-dioxoimidazolidin-4-yl]methyl}-2-(3,4-difluorophenyl)-2H-1,2,3-triazole-4-carboxamide] | 7 nM | 175 nM
O=C1NC(=O)[C@](CNC(=O)c2cnn(-c3cccc(Cl)c3)n2)(C2CC2)N1 [Example 10, 2-(3-chlorophenyl)-N-{[(4R)-4-cyclopropyl-2,5-dioxoimidazolidin-4-yl]methyl}-2H-1,2,3-triazole-4-carboxamide] | 21 nM | 450 nM
O=C1NC(=O)[C@](CNC(=O)c2cnn(-c3ccccc3Cl)n2)(C2CC2)N1 [Example 11, 2-(2-chlorophenyl)-N-{[(4R)-4-cyclopropyl-2,5-dioxoimidazolidin-4-yl]methyl}-2H-1,2,3-triazole-4-carboxamide] | 470 nM | 10000 nM
Cc1ccccc1-n1ncc(C(=O)NC[C@@]2(C3CC3)NC(=O)NC2=O)n1 [Example 12, N-{[(4R)-4-cyclopropyl-2,5-dioxoimidazolidin-4-yl]methyl}-2-(2-methylphenyl)-2H-1,2,3-triazole-4-carboxamide] | 980 nM | 12000 nM
Cc1ccc(-n2ncc(C(=O)NC[C@@]3(C4CC4)NC(=O)NC3=O)n2)cc1 [Example 13, N-{[(4R)-4-cyclopropyl-2,5-dioxoimidazolidin-4-yl]methyl}-2-(4-methylphenyl)-2H-1,2,3-triazole-4-carboxamide] | 47 nM | 950 nM
N#Cc1ccc(-n2ncc(C(=O)NC[C@@]3(C4CC4)NC(=O)NC3=O)n2)cc1 [Example 14, 2-(4-cyanophenyl)-N-{[(4R)-4-cyclopropyl-2,5-dioxoimidazolidin-4-yl]methyl}-2H-1,2,3-triazole-4-carboxamide] | 400 nM | 17000 nM

The next lines start with the values.

IC50 [1] | IC50 [2] | Structure (SMILES)
7 nM | 910 nM | CC(C)C1(CNC(=O)c2cnn(-c3ccc(F)c(F)c3)n2)NC(=O)NC1=O (single isomer, unassigned; ent-2) [Example 123, ent-2-(3,4-difluorophenyl)-N-[(4-isopropyl-2,5-dioxoimidazolidin-4-yl)methyl]-2H-1,2,3-triazole-4-carboxamide]
190 nM | 12000 nM | CC(C)C1(CNC(=O)c2cnn(-c3ccc(F)c(Cl)c3)n2)NC(=O)NC1=O (single isomer, unassigned; ent-2) [Example 126, ent-2-(3-chloro-4-fluorophenyl)-N-[(4-isopropyl-2,5-dioxoimidazolidin-4-yl)methyl]-2H-1,2,3-triazole-4-carboxamide]
2 nM | 130 nM | Cn1ccnc1C1(CNC(=O)c2cnn(-c3ccc(F)cc3)n2)NC(=O)NC1=O (single isomer, unassigned; ent-2) [Example 144, ent-2-(4-fluorophenyl)-N-{[4-(1-methyl-1H-imidazol-2-yl)-2,5-dioxoimidazolidin-4-yl]methyl}-2H-1,2,3-triazole-4-carboxamide]
2 nM | 41 nM | Cn1ccnc1C1(CNC(=O)c2cnn(-c3ccc(Cl)c(F)c3)n2)NC(=O)NC1=O (single isomer, unassigned; ent-2) [Example 145, ent-2-(4-chloro-3-fluorophenyl)-N-{[4-(1-methyl-1H-imidazol-2-yl)-2,5-dioxoimidazolidin-4-yl]methyl}-2H-1,2,3-triazole-4-carboxamide]
83 nM | 8900 nM | CC1(CNC(=O)c2cnn(-c3ccc(F)cc3)n2)NC(=O)NC1=O (single isomer, unassigned; ent-2) [Example 153, ent-2-(4-fluorophenyl)-N-[(4-methyl-2,5-dioxoimidazolidin-4-yl)methyl]-2H-1,2,3-triazole-4-carboxamide]
26 nM | 480 nM | O=C1NC(=O)[C@](CNC(=O)c2cnn(-c3ccc(Cl)cc3)n2)(C2CC2)N1 [Example 9, 2-(4-chlorophenyl)-N-{[(4R)-4-cyclopropyl-2,5-dioxoimidazolidin-4-yl]methyl}-2H-1,2,3-triazole-4-carboxamide]
32 nM | 600 nM | N#Cc1cccc(-n2ncc(C(=O)NC[C@@]3(C4CC4)NC(=O)NC3=O)n2)c1 [Example 17, 2-(3-cyanophenyl)-N-{[(4R)-4-cyclopropyl-2,5-dioxoimidazolidin-4-yl]methyl}-2H-1,2,3-triazole-4-carboxamide]
